Common to all, as to test: Dundee kinase panel
Holding throughout (format): biochemical
Common to all, as to conditions: for remaining activity at 1 µM: read-out: residual activity

One assay concerns the target T1, CAMK1 (Homo sapiens, UniProt Q14012).
T1 construct: lines 1-140) and Reaction Biology
As to the method: (§1) Compounds were screened at 1 μM. For key hits, pIC50 values were then determined by HTRF as above. […] Stability in mouse and human liver microsomes was determined by Cyprotex.

The next assay concerns the target T2, EIF2AK3 (Homo sapiens, UniProt Q9NZJ5).
T2 construct: lines 1-140) and Reaction Biology
T2 sequence (Q9NZJ5 30-1116): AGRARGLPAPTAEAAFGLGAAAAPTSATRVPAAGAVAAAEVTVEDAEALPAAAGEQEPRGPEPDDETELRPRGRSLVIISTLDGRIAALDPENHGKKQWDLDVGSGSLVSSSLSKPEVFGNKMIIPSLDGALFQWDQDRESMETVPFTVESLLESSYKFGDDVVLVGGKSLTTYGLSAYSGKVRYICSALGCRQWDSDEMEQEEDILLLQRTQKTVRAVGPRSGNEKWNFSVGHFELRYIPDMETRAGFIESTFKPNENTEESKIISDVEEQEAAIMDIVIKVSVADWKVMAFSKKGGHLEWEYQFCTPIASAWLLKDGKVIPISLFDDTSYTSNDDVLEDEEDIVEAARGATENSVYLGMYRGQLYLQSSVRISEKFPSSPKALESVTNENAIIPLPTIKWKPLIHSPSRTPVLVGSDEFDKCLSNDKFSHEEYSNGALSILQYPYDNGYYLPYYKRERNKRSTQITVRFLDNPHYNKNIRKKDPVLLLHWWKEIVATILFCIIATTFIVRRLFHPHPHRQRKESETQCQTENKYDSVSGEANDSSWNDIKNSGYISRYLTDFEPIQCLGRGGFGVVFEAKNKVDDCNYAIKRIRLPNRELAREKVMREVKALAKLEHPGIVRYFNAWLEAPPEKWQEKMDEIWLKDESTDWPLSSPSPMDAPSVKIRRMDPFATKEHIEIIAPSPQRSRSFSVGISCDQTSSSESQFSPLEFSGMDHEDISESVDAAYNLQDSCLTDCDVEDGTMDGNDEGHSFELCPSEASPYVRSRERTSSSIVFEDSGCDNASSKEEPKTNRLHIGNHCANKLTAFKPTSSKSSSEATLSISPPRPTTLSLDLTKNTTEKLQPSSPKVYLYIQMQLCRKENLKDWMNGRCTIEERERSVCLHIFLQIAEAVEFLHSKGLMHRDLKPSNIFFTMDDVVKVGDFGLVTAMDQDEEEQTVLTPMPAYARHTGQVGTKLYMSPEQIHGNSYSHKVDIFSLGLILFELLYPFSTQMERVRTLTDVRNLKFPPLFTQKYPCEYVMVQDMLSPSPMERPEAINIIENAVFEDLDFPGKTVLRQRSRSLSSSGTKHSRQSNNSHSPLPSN
As to the method: as §1

The target in a further assay is T3, ERK1 (Homo sapiens, UniProt P27361).
T3 construct: lines 1-140) and Reaction Biology
T3 sequence (P27361 whole entry): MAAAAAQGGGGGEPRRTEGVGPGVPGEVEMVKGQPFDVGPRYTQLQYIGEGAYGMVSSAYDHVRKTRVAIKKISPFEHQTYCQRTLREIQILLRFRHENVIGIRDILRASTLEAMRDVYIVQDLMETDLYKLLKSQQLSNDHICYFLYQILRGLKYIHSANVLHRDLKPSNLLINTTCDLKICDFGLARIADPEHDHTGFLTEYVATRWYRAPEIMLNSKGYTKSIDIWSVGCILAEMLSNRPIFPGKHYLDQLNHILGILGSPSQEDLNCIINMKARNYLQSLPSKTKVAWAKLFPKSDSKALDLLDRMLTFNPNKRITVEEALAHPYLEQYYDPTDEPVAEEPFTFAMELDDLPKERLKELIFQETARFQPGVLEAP
As to the method:
as §1

The next assay deals with T4, PKA (Homo sapiens, UniProt P17612).
T4 construct: lines 1-140) and Reaction Biology
As to the method: as §1

Another assay deals with T5, PKBb (Homo sapiens, UniProt P31751).
T5 construct: lines 1-140) and Reaction Biology
T5 sequence (P31751 whole entry): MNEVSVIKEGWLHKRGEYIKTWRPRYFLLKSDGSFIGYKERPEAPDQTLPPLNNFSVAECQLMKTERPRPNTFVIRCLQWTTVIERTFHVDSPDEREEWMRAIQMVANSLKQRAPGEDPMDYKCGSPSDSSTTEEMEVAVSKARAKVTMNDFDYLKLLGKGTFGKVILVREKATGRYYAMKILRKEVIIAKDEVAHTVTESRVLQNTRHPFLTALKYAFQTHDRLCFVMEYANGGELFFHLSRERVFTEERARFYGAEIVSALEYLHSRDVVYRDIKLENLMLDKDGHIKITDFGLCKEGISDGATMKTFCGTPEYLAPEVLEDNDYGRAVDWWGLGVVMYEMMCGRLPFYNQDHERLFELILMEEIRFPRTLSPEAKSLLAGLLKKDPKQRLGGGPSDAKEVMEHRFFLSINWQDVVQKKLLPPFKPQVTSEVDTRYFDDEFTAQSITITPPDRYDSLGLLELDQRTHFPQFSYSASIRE
Here is the method: as §1

For the next assay, the target named is T6, S6K1 (Homo sapiens, UniProt P23443).
T6 construct: lines 1-140) and Reaction Biology
T6 sequence (P23443 whole entry): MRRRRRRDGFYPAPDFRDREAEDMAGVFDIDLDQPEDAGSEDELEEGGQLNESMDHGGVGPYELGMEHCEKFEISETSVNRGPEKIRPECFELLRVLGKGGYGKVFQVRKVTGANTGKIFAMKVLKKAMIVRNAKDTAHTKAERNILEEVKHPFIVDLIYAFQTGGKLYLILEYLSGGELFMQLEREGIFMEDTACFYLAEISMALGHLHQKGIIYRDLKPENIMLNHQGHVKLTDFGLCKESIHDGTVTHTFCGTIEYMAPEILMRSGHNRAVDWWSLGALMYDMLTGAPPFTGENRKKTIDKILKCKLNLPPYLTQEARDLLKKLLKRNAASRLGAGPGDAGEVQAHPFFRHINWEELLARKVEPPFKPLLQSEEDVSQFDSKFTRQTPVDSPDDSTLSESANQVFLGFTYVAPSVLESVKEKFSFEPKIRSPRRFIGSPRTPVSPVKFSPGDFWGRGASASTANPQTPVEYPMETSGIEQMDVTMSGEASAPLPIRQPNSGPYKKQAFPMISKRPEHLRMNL
As to the method: as §1

The target in another assay is T7, TTK (Homo sapiens, UniProt P33981).
T7 construct: lines 1-140) and Reaction Biology
T7 sequence (P33981 1-857): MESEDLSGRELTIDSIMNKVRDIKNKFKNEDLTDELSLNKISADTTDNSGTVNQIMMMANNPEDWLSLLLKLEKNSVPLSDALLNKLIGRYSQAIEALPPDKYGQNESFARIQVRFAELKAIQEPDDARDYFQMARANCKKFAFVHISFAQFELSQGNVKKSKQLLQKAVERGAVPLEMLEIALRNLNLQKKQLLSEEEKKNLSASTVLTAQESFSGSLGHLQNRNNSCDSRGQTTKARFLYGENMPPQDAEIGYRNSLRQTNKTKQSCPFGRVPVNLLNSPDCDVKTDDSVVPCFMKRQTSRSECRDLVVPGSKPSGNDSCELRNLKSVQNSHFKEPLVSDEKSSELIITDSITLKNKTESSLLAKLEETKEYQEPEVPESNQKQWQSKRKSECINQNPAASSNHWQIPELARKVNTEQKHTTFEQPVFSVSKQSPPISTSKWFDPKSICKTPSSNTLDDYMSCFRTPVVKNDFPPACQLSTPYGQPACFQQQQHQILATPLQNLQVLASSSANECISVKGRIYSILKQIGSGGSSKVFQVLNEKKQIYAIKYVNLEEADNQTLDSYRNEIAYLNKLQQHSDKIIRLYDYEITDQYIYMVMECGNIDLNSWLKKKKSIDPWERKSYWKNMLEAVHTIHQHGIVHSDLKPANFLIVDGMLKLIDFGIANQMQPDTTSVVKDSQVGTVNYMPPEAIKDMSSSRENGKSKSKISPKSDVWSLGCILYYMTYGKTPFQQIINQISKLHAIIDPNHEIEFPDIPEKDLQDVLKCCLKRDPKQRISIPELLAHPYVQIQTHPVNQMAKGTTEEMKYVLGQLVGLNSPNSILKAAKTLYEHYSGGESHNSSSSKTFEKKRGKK
Here is the method: as §1

T1 sequence (Q14012 whole entry): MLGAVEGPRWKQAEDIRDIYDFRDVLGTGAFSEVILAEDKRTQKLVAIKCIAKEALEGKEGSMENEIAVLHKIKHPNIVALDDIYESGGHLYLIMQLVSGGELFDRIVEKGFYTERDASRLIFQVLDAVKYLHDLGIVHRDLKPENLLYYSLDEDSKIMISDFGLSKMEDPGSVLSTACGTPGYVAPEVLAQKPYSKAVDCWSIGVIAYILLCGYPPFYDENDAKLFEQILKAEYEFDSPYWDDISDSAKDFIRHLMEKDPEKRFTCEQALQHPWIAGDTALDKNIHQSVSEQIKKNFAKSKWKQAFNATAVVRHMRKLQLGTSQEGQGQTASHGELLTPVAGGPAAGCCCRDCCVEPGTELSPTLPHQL

As for `Oc1ncnc2c1c(-c1ccccc1)cn2-c1ccccc1` [F1386-0303, 5,7-diphenyl-7H-pyrrolo[2,3-d]pyrimidin-4-ol], the remaining activity at 1 µM amounted to 97% at CAMK1; 99% at EIF2AK3; 124% at ERK1; 103% at PKA; 95% on PKBb; 105% at S6K1. For the same compound, on TTK, the remaining activity at 1 µM stood at 97%.
On to `O=C1Cc2c([nH]c3ccc(Br)cc23)-c2ccccc2N1` [Kenpaullone], for which the remaining activity at 1 µM was found to be 103% on CAMK1; 94% at EIF2AK3; 78% at ERK1; 105% at PKA; 106% at PKBb; 97% on S6K1. In addition, at TTK, the remaining activity at 1 µM turned out to be 97%.
With `COCCOc1ccc(-c2cn(-c3ccccc3)c3nc[nH]c(=O)c23)cc1` [DMX-5804, 5-[4-(2-methoxy-ethoxy)-phenyl]-7-phenyl-3,7-dihydro-pyrrolo[2,3-d]pyrimidin-4-one], the remaining activity at 1 µM turned out to be 114% at CAMK1; 110% at EIF2AK3; 107% at ERK1; 109% at PKA; 116% on PKBb; 121% at S6K1. The remaining activity at 1 µM on TTK turned out to be 105%.
As to `O=C1Nc2ccc(I)cc2/C1=C/c1cc(Br)c(O)c(Br)c1` [GW5074], the remaining activity at 1 µM came to 70% at CAMK1; 85% at EIF2AK3; 87% at ERK1; 83% on PKA; 69% at PKBb; 87% on S6K1. The remaining activity at 1 µM on TTK was 88%.
As for `Nc1ncc(C(=O)NC2CN(C(=O)C3CC3)C2)c2ccc(-c3cccc(F)c3)nc12` [GNE-495], the residual activity on CAMK1 (1 μM) was found to be 93%; on EIF2AK3 (1 μM), 100%; on ERK1 (1 μM) it was 143%; on PKA (1 μM) it was 95%; at PKBb (1 μM) it was 99%; at S6K1 (1 μM) it was 43%. In addition, the residual activity at TTK (1 μM) stood at 87%.

What is called residual activity is the signal under treatment as a percentage of the control signal.
